Like-named read-outs stand apart in the source and are kept apart here.
How the values were obtained:
[1] = target: CYP2D6 (Homo sapiens, UniProt P10635)
[2] = target: T1, CYP1A2 (Homo sapiens, UniProt P05177)
T1 sequence (P05177 1-516): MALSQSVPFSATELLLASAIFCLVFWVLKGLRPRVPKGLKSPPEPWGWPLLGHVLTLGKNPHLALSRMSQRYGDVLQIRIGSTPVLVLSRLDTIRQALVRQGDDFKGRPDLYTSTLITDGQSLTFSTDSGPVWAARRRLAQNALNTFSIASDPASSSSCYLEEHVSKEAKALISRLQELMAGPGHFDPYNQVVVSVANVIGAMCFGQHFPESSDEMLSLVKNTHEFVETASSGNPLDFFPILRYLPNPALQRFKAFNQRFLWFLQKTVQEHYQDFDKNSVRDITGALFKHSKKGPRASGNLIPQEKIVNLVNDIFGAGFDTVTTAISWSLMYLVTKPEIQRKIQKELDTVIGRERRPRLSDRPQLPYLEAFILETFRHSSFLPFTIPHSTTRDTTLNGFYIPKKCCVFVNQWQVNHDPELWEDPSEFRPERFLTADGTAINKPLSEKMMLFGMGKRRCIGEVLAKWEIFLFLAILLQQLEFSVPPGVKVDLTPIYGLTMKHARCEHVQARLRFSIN

[3] = Plasma protein binding by equilibrium dialysis; type: in vitro ADME, mouse; conditions: for % Recovery / % Unbound: mouse plasma
Protocol: Samples of spiked plasma and blank buffer (Dulbecco's phosphate-buffered saline, DPBS) and spiked brain homogenate and blank DPBS added to opposing sides of a dialysis membrane were collected from triplicate equilibrium dialysis chambers prior to (t=0) and following 1, 2, 4 and 6 hours of incubation at 37° C. […] The LC-MS/MS method(s) for analytes (Compound I-19, Compound A and Compound B) was cross-qualified for the analysis of the DPBS samples.
A secondary stock solution of 200 μM (74.2 ug/mL) will be prepared in DMSO. This secondary stock solution will then be diluted 100-fold to 2 μM ([…]) with male CD-1 mouse plasma and brain homogenate (1:2 v/v brain:Dulbecco's phosphate buffered saline, pH 7-7.2) or buffer (DPBS).
To 2.97 mL aliquots of thawed mouse plasma or brain homogenate warmed to 37° C., 30 ul aliquots of the secondary stock solution of the test compound will be added for final concentrations of 2 μM (0.742 ug/mL). An appropriate volume of warmed buffer (DPBS) will also be spiked with the test compound at a concentration of 2 μM ([…]). Triplicate aliquots (50 μL) of each spiked plasma, brain homogenate and buffer solution will be collected prior to dialysis into labeled 1.5 mL polypropylene tubes and then stored at approximately −80° C. until bioanalysis.
Equilibrium dialysis will be performed in a 96-well Teflon dialysis unit (HTDialysis, Gales Ferry, CT). Each well of the unit consists of two chambers separated by a vertically aligned dialysis membrane (regenerated cellulose) with a molecular weight cut-off of 12-14 KDa. The equilibrium dialysis membranes will first be presoaked in deionized water for 30 min, then soaked in 20% ethanol for 20 min, followed by rinsing twice with deionized water.
The equilibrium dialysis apparatus will be assembled according to the manufacturer's directions. One chamber of each well will be immediately filled with 150 μL of blank buffer (to prevent membrane dehydration). Aliquots (150 μL) of spiked plasma, spiked brain homogenate and spiked buffer will then be added to the opposing chamber in each well. Three wells per time point per matrix will be used. The top of the plate will be sealed with an adhesive sealing film to prevent evaporation and maintain constant pH during incubation.
The dialysis apparatus will be incubated at 37° C. in an orbital shaker/incubator (Lab-Line Enviro Shaker) set at 75 rpm.
Following 1, 2, 4 and 6 hours of incubation, samples from each plasma, brain homogenate and buffer compartment will be collected and the sample volume will be documented.

[4] = target: T2, CYP2B6 (Homo sapiens, UniProt P20813)
T2 sequence (P20813 1-491): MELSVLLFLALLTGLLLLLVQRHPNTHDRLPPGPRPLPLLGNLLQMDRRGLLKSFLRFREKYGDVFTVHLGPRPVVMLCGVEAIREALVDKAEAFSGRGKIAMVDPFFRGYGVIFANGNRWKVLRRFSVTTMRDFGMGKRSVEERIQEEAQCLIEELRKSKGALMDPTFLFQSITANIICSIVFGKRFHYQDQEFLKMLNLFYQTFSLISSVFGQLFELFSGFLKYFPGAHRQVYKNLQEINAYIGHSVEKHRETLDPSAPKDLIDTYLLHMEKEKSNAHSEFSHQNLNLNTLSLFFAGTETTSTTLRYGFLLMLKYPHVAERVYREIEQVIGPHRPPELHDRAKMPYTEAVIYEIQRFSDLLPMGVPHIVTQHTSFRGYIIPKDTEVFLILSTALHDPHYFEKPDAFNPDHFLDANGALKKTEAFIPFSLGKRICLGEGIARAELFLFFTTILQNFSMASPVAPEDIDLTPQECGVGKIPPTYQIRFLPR

[5] = target: T2, CYP2B6; experiment: in vitro; conditions: both, pH 7.4
[6] = target: T2, CYP2B6; experiment: biochemical
[7] = dialysis time 1 h, 2 μM, 37° C.
[8] = dialysis time 2 h, 2 μM, 37° C.
[9] = dialysis time 4 h, 2 μM, 37° C.
[10] = dialysis time 6 h, 2 μM, 37° C.

Chain of CYP2D6 (P10635 whole entry): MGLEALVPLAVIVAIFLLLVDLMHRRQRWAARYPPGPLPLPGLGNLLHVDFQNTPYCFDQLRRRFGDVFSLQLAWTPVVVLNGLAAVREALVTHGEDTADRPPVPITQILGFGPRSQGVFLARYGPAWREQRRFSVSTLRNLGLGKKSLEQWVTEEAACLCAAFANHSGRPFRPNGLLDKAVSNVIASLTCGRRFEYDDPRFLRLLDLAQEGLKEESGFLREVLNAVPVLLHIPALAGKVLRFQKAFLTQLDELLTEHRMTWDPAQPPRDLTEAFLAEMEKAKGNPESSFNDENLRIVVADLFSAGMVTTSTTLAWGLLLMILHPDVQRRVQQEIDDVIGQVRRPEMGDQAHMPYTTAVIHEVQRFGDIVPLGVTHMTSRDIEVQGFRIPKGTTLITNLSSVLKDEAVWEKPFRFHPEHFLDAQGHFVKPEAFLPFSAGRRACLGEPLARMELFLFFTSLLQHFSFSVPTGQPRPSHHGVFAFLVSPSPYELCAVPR

Q: For `Clc1ccc(C2(OCC3OCCO3)c3ccccc3C3=NCCN32)cc1` (stereo not shown) [Compound I-19], which “Inhibition at Highest Test Article Concentration” value ([1]; 2D6, Dextromethorphan, at 50 μM) is on record?
A: 84.3 at 50 μM %

Q: What about the IC50 ([1]; microsomes) of the same compound?
A: 8.7 µM

Q: What about the “Inhibition at Highest Test Article Concentration” value ([2]; 1A2, Phenacetin, at 50 μM) of the same compound?
A: 18.2 at 50 μM %

Q: And the IC50 ([2]; pooled human liver microsomes, 30 min)?
A: did not inhibit

Q: And the “% unbound in plasma” value ([3]; 2 μM, 6 hours of dialysis, 37° C.)?
A: 3.72±0.564%

Q: What about the “fraction unbound to plasma” value ([3]; 2 μM, equilibrium dialysis) of the same compound?
A: 0.0372

Q: And the “% recovery, plasma” value ([3]; 6 hours of dialysis)?
A: 57.1±0.567%

Q: What about the “% Recovery” value [3, 7] of the same compound?
A: 87.9 ± 3.05%

Q: What about the “% Unbound” value [3, 7] of the same compound?
A: 1.43%

Q: What about the “% Recovery” value [3, 8] of the same compound?
A: 80.1 ± 2.93%

Q: What about the “% Unbound” value [3, 8] of the same compound?
A: 1.91 ± 0.158%

Q: What about the “% Recovery” value [3, 9] of the same compound?
A: 67.6 ± 3.41%

Q: What about the “% Unbound” value [3, 9] of the same compound?
A: 3.20 ± 0.700%

Q: And the “% Recovery” value [3, 10]?
A: 57.1 ± 0.567%

Q: What about the “% Unbound” value [3, 10] of the same compound?
A: 3.72 ± 0.564%

Q: And the “Inhibition at Highest Test Article Concentration” value ([4]; 2B6, Bupropion, at 50 μM)?
A: 77.2 at 50 μM %

Q: And the IC50 ([4]; microsomes)?
A: 7.44 µM

Q: Which inhibition at 10 µM [5] does the source give for `OC1(c2ccc(Cl)cc2)c2ccccc2C2=NCCN21` (stereo not shown) [Compound A, 5-(4-chlorophenyl)-2,3-dihydroimidazo[1,2-b]isoindol-5-ol, reference compound] here?
A: 62%

Q: What about the IC50 [6] of the same compound?
A: 0.092 µM
